# Results from patent US11857588B2, “Reproductive cell maintenance system” (Membrane Protective Technologies, Inc., priority 2005, dated 2024).
# Where two headings read alike, the source gives them in different places.
# Experiments:
# stallion sperm cells [1] = assay type: cell-based
# Procedure: In a second experiment (data set out to the right of Exp 2 in Tables 5-6), semen was collected from one stallion via artificial vagina. The motility of the ejaculate was determined objectively using a Hamilton-Thorn sperm analyzer with a 37° C. stage warmer. The assessed data included percentage of motile sperm cells, progressive motile sperm cells, as well as average path velocity, straight line velocity, and straightness of motile sperm cells in accordance with conventional operating procedures for the instrument. […]
# Following dilution of each semen sample with E-Z Mixin CST and the corresponding adjuvant, the treated semen samples were cooled by reducing the temperature at a controlled rate to about 4° C. Motility was evaluated subjectively via light microscope immediately at 24, 38, and 72 h after being held at about 4° C. […]
# stallion sperm cells [2] = assay type: cell-based; remark: listed apart in the source
# Procedure: In a first experiment (data set out to the right of Exp 1 in Tables 1-6), semen was collected from two stallions via artificial vagina. The motility of each ejaculate was determined subjectively via light microscope and the semen was diluted to a final concentration of about 5×10^8 motile sperm cells/ml with E-Z freezin LE (Animal Reproduction Systems, Chino, Calif.) and combined to one each of thirteen 0.25 mL semen samples was an amount of a corresponding one of thirteen adjuvants: (1) no addition-control (“untreated control semen sample); 2) about 5% cyclodextrin; 3) about 2.5% cyclodextrin; 4) about 5% pulp oil in cyclodextrin; 5) about 2.5% pulp oil in cyclodextrin; 6) about 5% seed oil in cyclodextrin; 7) about 2.5% seed oil in cyclodextrin; 8) emulsion of about 5% seed oil, 9) emulsion of about 2.5% seed oil, 10) emulsion of about 5% pulp oil, 11) emulsion of about 2.5% pulp oil, 12) about 5% juice, and 13) about 2.5% juice. Throughout this description the amount of extract is expressed as a percentage volume to volume (v/v) unless otherwise indicated.
# Following dilution of each semen sample with E-Z freezin LE and combining the diluted semen with the corresponding adjuvant (“treated semen samples”), the treated semen samples were cooled by reducing the temperature at a controlled rate to about 5° C. […]
substance,measurement,setting,value
cyclodextrin,effect on sperm cells (spermicidal),stallion sperm cells [1],spermicidal
same,effect on sperm cells (spermicidal),stallion sperm cells [2],spermicidal
